Our source for the TGI and GI50 values is PubChem BioAssay (NCI).

Each structure is given as a SMILES string.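 Results reflect a 48-hour exposure of cells in 96-well plates to compound at five concentrations. GI50 marks 50% less growth. TGI: total growth inhibition.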

Holding throughout (assay): NCI-60 cell line screen, 48 h
The subject of assay [1] is 786-0 renal.
For assay [2], the system named is OVCAR-8 ovarian.
The test system of assay [3] is UACC-62 melanoma.
Assay [4] deals with RXF 393 renal.
Assay [5] relates to NCI-H23 lung.
In assay [6] the test system is COLO 205 colon.
The subject of assay [7] is TK-10 renal.
Assay [8] deals with CAKI-1 renal.
The subject of assay [9] is SK-MEL-5 melanoma.
Assay [10] relates to SK-MEL-2 melanoma.

In the case of `CS(=O)(=O)OCCN1CCN(C(=O)c2cccc3c(Nc4ccc(S(=O)(=O)N=C(N)N)cc4)c4ccccc4nc23)CC1`, the TGI in [1], in [2], in assay [3], in assay [4], in assay [5] and in assay [6] was above 100 µM in each case. Besides, the TGI in assay [7], in assay [8] and in assay [9] was above 100 µM each time.

Consider `O=C(Nc1cccs1)c1c(O)[nH]c(=S)[nH]c1=O`, for which the TGI in assay [1], in assay [2], in [3], in [10], in assay [5] and in [6] was above 100 µM throughout. Moreover, the TGI in [7], in assay [8] and in [9] was above 100 µM in each case.

For the molecule `CC1CCP(=O)(c2ccccc2)c2ccccc21` (stereo not given), the TGI in assay [1], in assay [2], in assay [3], in [10], in [4] and in [5] was above 100 µM in each case. Further, the TGI in assay [6], in assay [7] and in assay [9] was above 100 µM throughout.

`CCCn1c(SC)nc(COC(=O)NC)c1COC(=O)NC`: the TGI in assay [1], in assay [2], in assay [3], in assay [10], in assay [5] and in [6] was above 100 µM in each case. In addition, the TGI in [7], in [8] and in [9] was above 100 µM in each case.

In the case of `O=C(/C(=C\C(=O)c1cccs1)c1ccsc1)c1ccc(Br)cc1`, the TGI in assay [1], in [2], in [3], in [10], in [5] and in assay [6] was above 100 µM throughout. Also, the TGI in assay [7], in [8] and in assay [9] was above 100 µM in each case.

Regarding `O=C(Nc1cccc([N+](=O)[O-])c1)C(=O)C(C(=O)c1ccccc1-c1ccccc1)C1OC(=O)c2ccccc21` (stereo not given), the TGI in [1] worked out at 38.9 µM; in [2], 71 µM; in assay [3], 45.7 µM; in assay [10] it was 38.3 µM; in [4] it was 28.5 µM; in [5] it was 30.1 µM. Also, the TGI in [6] is 38.1 µM; in assay [7] it was 61.5 µM; in assay [9], 30.7 µM.

Regarding `CC1(C)C(=O)C(C)(C)C1=NN`, the TGI in [1], in assay [2], in [3], in assay [4], in assay [5] and in assay [6] was above 100 µM throughout. Further, the TGI in assay [7], in [8] and in [9] was above 100 µM each time.

In the case of `CCOC(=O)C1=C(c2ccccc2)N(C)c2ccccc2S1`, the TGI in [1] is above 100 µM; in assay [2], above 100 µM; in assay [3], 53.2 µM; in assay [10], 45.3 µM; in assay [5], 60.4 µM; in assay [6], above 100 µM. Also, the TGI is above 100 µM in assay [7], above 100 µM in assay [8] and 30.3 µM in assay [9].

On to `CC12N=NN(c3ccc([N+](=O)[O-])cc3)C1(O)c1ccccc1C2=O` (stereo not given), for which the TGI in assay [1], in [2], in [3], in [4], in assay [5] and in assay [6] was above 100 µM each time. Moreover, the TGI in assay [7] and in [9] was above 100 µM each time.

Take `O=C(O)C1C2CCC(O2)C1C(=O)N1CCCCC1` (stereo not given): the TGI in [1] came out at 15 µM; in assay [2], 18.1 µM; in assay [3], 20.4 µM; in assay [10], 21.2 µM; in [4], 8.35 µM; in assay [5] it was 33.4 µM. Further, the results for the TGI in [6], in [7] and in assay [9] were 3.87 µM, 8.42 µM and 29.7 µM, respectively.

For `O=C(O)COc1ccc(O)c2c1C(=O)CCCC2=O`, the TGI in [1], in [2], in assay [3], in assay [10], in [5] and in assay [6] was above 100 µM in each case. For the same molecule, the TGI in assay [7], in [8] and in assay [9] was above 100 µM in each case.

As to `COc1cc(/C=C\c2ccc(C)cc2)cc(OC)c1OC`, the TGI in assay [1] was 25.2 µM; in [10], 36.5 µM; in assay [5] it was 0.276 µM; in assay [6] it was 0.144 µM; in [7] it was above 100 µM; in assay [8], above 53.8 µM. Besides, the GI50 in assay [10] is 0.0044 µM; in [7], 25.7 µM; in assay [8], 0.0235 µM.

Take `O=C([CH-]C(=O)c1ccccc1)c1ccccc1.O=C([CH-]C(=O)c1ccccc1)c1ccccc1.O=C([CH-]C(=O)c1ccccc1)c1ccccc1.[Nd+3].[OH3+]`: the GI50 in assay [1] was 5.06 µM; in assay [2], 3.3 µM; in [3], 4.3 µM; in assay [10], 3.97 µM; in [5], 2.97 µM; in assay [6], 10.6 µM. The GI50 in [7] is 8.51 µM; in [8] it was 5.34 µM; in [9] it was 2.79 µM. In addition, the TGI in [1] worked out at 18.5 µM; in assay [2] it was 22.1 µM; in [3], 19.2 µM; in [10], 15.6 µM; in assay [5] it was 13.3 µM; in assay [6] it was 25.6 µM. Besides, the TGI came to 74.7 µM in assay [7], 20.8 µM in assay [8] and 11.8 µM in [9].

As for `O=C1C=C(NCCNC(=S)Nc2ccccc2)c2nccc3c2c1nc1ccccc13`, the GI50 in assay [1] was 94.5 µM; in [2] it was above 100 µM; in assay [3] it was 20.6 µM; in assay [10], above 100 µM; in assay [5] it was 31.5 µM; in [6], 9.18 µM. The results for the GI50 in [7], in [8] and in [9] were 51.9 µM, 33.6 µM and 27.5 µM, respectively. The TGI was above 100 µM in assay [1]; above 100 µM in [2]; 73 µM in assay [3]; above 100 µM in [10]; above 100 µM in [5]; above 100 µM in assay [6]. Moreover, the TGI in assay [7], in assay [8] and in [9] was above 100 µM each time.

With `CCCCC1CC(c2cccc([N+](=O)[O-])c2)=NO1` (stereo not given), the TGI in [1], in [2], in assay [3], in [10], in assay [5] and in assay [6] was above 100 µM in each case. Besides, the TGI in assay [7], in [8] and in [9] was above 100 µM each time.

In the case of `Cc1ccc(S(=O)(=O)NCCNC2=CC(=O)c3nc4ccccc4c4ccnc2c34)cc1`, the GI50 was 20.6 µM in assay [1]; 19.5 µM in assay [2]; 20.6 µM in assay [3]; 33 µM in assay [10]; 20.1 µM in assay [5]; 14.3 µM in assay [6]. The GI50 is 20.2 µM in assay [7], 20.5 µM in [8] and 14.6 µM in assay [9]. The TGI was 50.2 µM in assay [1]; 72.7 µM in assay [2]; 44.5 µM in [3]; above 100 µM in assay [10]; 49.5 µM in assay [5]; 52.2 µM in assay [6]. The TGI in [7] was 40.1 µM; in assay [8] it was 48.3 µM; in assay [9] it was 33.9 µM.

For `COc1cc(CCN)c2c(c1OC)SSSSS2`, the GI50 in assay [1] was 1.04 µM; in assay [2], 1.22 µM; in [3], 1.37 µM; in assay [10], 1.1 µM; in assay [5] it was 0.478 µM; in assay [6], 0.0184 µM. In addition, the GI50 in assay [7] was 1.42 µM; in [8], 0.503 µM; in assay [9] it was 0.712 µM. Further, the TGI is 2.22 µM in assay [1]; 2.71 µM in assay [2]; 2.97 µM in [3]; 2.61 µM in [10]; 1.79 µM in assay [5]; 0.0783 µM in [6]. For the same molecule, the TGI amounted to 3.03 µM in assay [7], 1.11 µM in assay [8] and 2.23 µM in assay [9].

With `OCCCOC(c1ccccc1)(c1ccccc1)c1ccccc1`, the TGI in assay [1], in [2], in assay [3], in assay [5], in assay [6] and in assay [7] was above 100 µM throughout. Further, the TGI in [8] and in [9] was above 100 µM in each case.

For the molecule `O=C1C=CC=CC2CC=C[C@@H](O)C12` (stereo not given in full), the TGI in assay [1] is 33.8 µM; in assay [2] it was above 100 µM; in assay [3] it was 38.5 µM; in assay [10], 58.5 µM; in [6], 39.5 µM; in [7] it was above 100 µM. Further, the TGI in [8] was above 100 µM; in [9], 38 µM.

Consider `Nc1nc2c(c(=O)[nH]1)NC(CO)CN2` (stereo not given), for which the TGI in assay [1], in assay [2], in assay [3], in assay [4], in [5] and in [6] was above 100 µM each time. Also, the TGI in assay [7] is above 100 µM.

Turning to `CCCCc1c2c(nc3c1CCc1cc4cc5c(nc4nc1-3)-c1nc3c(c(CCCC)c1CC5)CCCC3)CCCC2`, the TGI was above 100 µM in [1]; above 100 µM in assay [2]; 52 µM in assay [3]; 71.4 µM in [4]; above 100 µM in assay [5]; above 100 µM in assay [6]. In addition, the TGI in assay [7] is above 100 µM.

In the case of `CCc1n(Cc2ccc3ccccc3n2)cc[n+]1Cc1ccc2ccccc2n1`, the GI50 was 31.2 µM in [1]; 1.63 µM in assay [2]; 0.186 µM in assay [3]; 0.217 µM in assay [10]; 0.982 µM in assay [4]; 0.257 µM in assay [5]. For the same molecule, the GI50 was 0.0596 µM in assay [6], 5.5 µM in assay [7] and 0.0653 µM in [9]. Further, the TGI in assay [1] is above 100 µM; in [2], 17.6 µM; in [3], 3.05 µM; in assay [10], 2.11 µM; in assay [4], 13 µM; in assay [5], 8.66 µM. In addition, the values for the TGI in [6], in [7] and in assay [9] were 0.705 µM, 26.3 µM and 1.02 µM, respectively.

As for `Cc1ccc(-c2cc(-c3ccco3)c(C#N)c(=O)[nH]2)cc1`, the TGI in [1], in assay [2], in assay [3], in [4], in [5] and in assay [6] was above 100 µM each time. The TGI in [7] and in assay [9] was above 100 µM in each case.

Consider `C1C[OH+]CC[OH+]CCNCC[OH+]CC[OH+]CCN1.[Cl-].[Pt+4]`, for which the GI50 in [1] was above 100 µM; in assay [2] it was above 100 µM; in assay [3], 91.9 µM; in assay [5], above 100 µM; in assay [6], above 100 µM; in [7] it was above 100 µM. The GI50 in assay [8] and in [9] was above 100 µM in each case. In addition, the TGI in [1], in assay [2], in [3], in assay [5], in assay [6] and in [7] was above 100 µM each time. In addition, the TGI in assay [8] and in [9] was above 100 µM throughout.

With `NCCCOCC(=O)O`, the TGI in [1], in [2], in assay [3], in [10], in assay [4] and in assay [5] was above 100 µM in each case. Moreover, the TGI in assay [6], in assay [7] and in [9] was above 100 µM each time.

Consider `CC(=O)N[C@@H]1C(O)CN2C(=O)C(=O)O[C@H](C(O)CO)[C@@H]12` (stereo not given in full), for which the TGI in assay [1], in assay [2], in [10], in [4], in assay [6] and in [7] was above 100 µM throughout.
